The test system of this experiment is prophage regions DVU0189-DVU0221 and DVU2847-DVU2879. As to the kind of experiment: normalized gene expression (FPKM) of two prophage regions in planktonic and biofilm samples. Type of experiment: cell-based, Desulfovibrio vulgaris. As to conditions: biofilm controlled via indole, FIG. 1. The text has this: Overexpression of prophages is observed in biofilm samples when compared to planktonic samples.

The source of these data is patent publication US20180051309A1, “METHODS TO ASSESS MONITOR AND CONTROL BACTERIAL BIOFILMS” (ExxonMobil Research and Engineering Company, priority 2016, published 2018).

As for `c1ccc2[nH]ccc2c1` [indole], the phage genes expression entry is “repressed phage genes expression”.
